Laboratory results reported in ChEMBL document CHEMBL4041504, “Differential characterization using readily accessible NMR experiments of novel N- and O-alkylated quinolin-4-ol, 1,5-naphthyridin-4-ol and quinazolin-4-ol derivatives with antimycobacterial activity” (Eur J Med Chem, 2017).
In brackets after ≈: the same amount, converted by molar mass.

Experiments:
HepG2 = experiment: Cytotoxicity against human HepG2 cells assessed as reduction in cell viability after 48 hrs by CellTiter Glo assay; type: cell-based; settings: HepG2, 48 h
[1] = test system: Mycobacterium tuberculosis; experiment: microbe, parasite or virus in culture; settings: H37Rv ATCC 25618, 144 h
Description: Antimycobacterial activity against Mycobacterium tuberculosis H37Rv ATCC 25618 after 6 days by resazurin dye based assay

[2] = Permeability of the compound by PAMPA; type: physicochemical; settings: read-out: permeability
[3] = Kinetic aqueous solubility of the compound by chemiluminescent nitrogen detection assay; type: physicochemical; settings: read-out: Kinetic_solubility
[4] = Lipophilicity, log D of the compound at pH 7.4 by chromatographic method; type: physicochemical; settings: buffer

Compound	IC50 (HepG2) [µM]	MIC [1] [µM]	Papp [2] [×10⁻⁶ cm/s]	solubility kinetic [3] [µM]	chromatographic logD [4]
COc1ccc2nc(C)cc(OCC(=O)Nc3cc(C)cc(C)c3)c2c1	20	1.9 (≈ 0.666 µg/mL)	–	–	–
COc1ccc2nccc(OCC(=O)Nc3cc(C)cc(C)c3)c2c1	50.1	10 (≈ 3.36 µg/mL)	28	51 (≈ 17.2 µg/mL)	5.3
Cc1cc(C)cc(NC(=O)Cn2ccc(=O)c3ccccc32)c1	63.1	> 250	45	34 (≈ 10.4 µg/mL)	3.54
COc1ccc2nc(C)n(CC(=O)Nc3cc(C)cc(C)c3)c(=O)c2c1	> 100	250 (≈ 87.9 µg/mL)	58	74 (≈ 26 µg/mL)	4.77
COc1ccc2nc(C)cc(OCC(=O)Nc3cc(C)cc(C)c3)c2n1	> 100	3.8 (≈ 1.34 µg/mL)	51	19 (≈ 6.68 µg/mL)	5.57
Cc1cc(C)cc(NC(=O)COc2ccnc3ccccc23)c1	> 100	> 80	46	59 (≈ 18.1 µg/mL)	5.03
Cc1cc(C)cc(NC(=O)Cn2ccc(=O)c3ccc(Cl)cc32)c1	100	> 250	26	86 (≈ 29.3 µg/mL)	4.39
COc1ccc2c(c1)c(=O)ccn2CC(=O)Nc1cc(C)cc(C)c1	> 100	> 250	19	30 (≈ 10.1 µg/mL)	3.72
COc1ccc2ncn(CC(=O)Nc3cc(C)cc(C)c3)c(=O)c2c1	> 100	> 250	–	8 (≈ 2.7 µg/mL)	4.5
COc1ccc2nc(C)nc(OCC(=O)Nc3cc(C)cc(C)c3)c2c1	> 100	1.25 (≈ 0.439 µg/mL)	37	3 (≈ 1.05 µg/mL)	5.59
Cc1cc(C)cc(NC(=O)Cn2cnc3ccccc3c2=O)c1	79.4	> 250	60	20 (≈ 6.15 µg/mL)	4.29
NNC(=O)c1ccncc1 [ISONIAZID]	–	3.6 (≈ 0.494 µg/mL)	–	–	–
